Assay results: patent publication US8349862B2, “Pyridine derivatives for the treatment of metabolic disorders related to insulin resistance or hyperglycemia” (Piramal Healthcare Limited, priority 2006, dated 2013)
“And” between values parts separate entries of the source, which are not always exact repeats. Equal values may be shown once.

Columns and labels:
[1] = system: insulin resistant adipocytes (differentiated 3T3 L1 fibroblasts); test: In vitro model exhibiting insulin resistance: 14C-2-deoxyglucose uptake in dexamethasone-treated adipocytes; format: cell-based; conditions: test compound 10 μM/mL, Rosiglitazone 0.1 μM; for Fold Vehicle (fold activity over vehicle, glucose uptake): vehicle = 1.0, cut off for activity 1.50 fold
Protocol: The assay was designed as in reference, British Journal of Pharmacology, 130, 351-58, 2000, the disclosure of which is incorporated by reference for the teaching of the assay. The solution of test compound (10 μM/mL) was prepared in DMSO. […] Differentiation into adipocytes was induced by known methods as described below. (J. Biol. […] 3T3 L1 fibroblasts were seeded in 24- or 6-well plates at a density of 0.5-2×10^4 cells/well and were allowed to reach maximal confluency. The confluent fibroblasts were exposed to culture medium for 2 days. […] The mature adipocytes were exposed to dexamethasone, 100 nM added in ethanol, in culture medium and incubated for 2 days. […] The test compound was also present during this period. After 3-4 hours, the medium was aspirated and replaced with Kreb's Ringer phosphate (KRP) buffer at pH 7.4 and with human/porcine insulin, 200 nM. The cells were incubated for 30 minutes at 37° C. […] After exactly 5 minutes, the plates were transferred to ice trays and medium was rapidly aspirated. The cell layer was washed twice with ice-cold phosphate buffered saline, (PBS), pH 7.4. […] Non-specific glucose uptake was assayed in wells exposed to cytochalasin B, inhibitor of glucose transport. […] Statistical analysis was performed using unpaired t-test.

lean C57Bl6/J mice = test: Evaluation of antiobesity, acute study: food intake in fasted lean mice; format: in vivo; conditions: 100 mg/kg intraperitoneally, 2 hours after food introduction, p<0.001 vs vehicle
Excerpt: The effect of standard (Sibutramine), Compound 1 and Compound 11 on food intake in lean C57Bl6/J mice at 2, 4, 6 and 24 hrs post-food introductions is indicated.
The assay was designed as in reference, PCT publication WO 2003086306, the disclosure of which is incorporated by reference for the teaching of the assay.
Male C57Bl6/J mice, weighing 20-25 g, were housed individually in the animal facility. Water and Chow (Amrut Laboratory Animal feed, Sangli, Maharashtra, India) were available ad libitum. One day before the study, the animals were weighed and separated into treatment groups having similar average body weight. For the experiment, the animals were deprived of food overnight for 16 hours. They were dosed intraperitoneally with test compounds (100 mg/kg) or comparator standard (Sibutramine, 3 mg/kg) in saline vehicle (10 mL/kg). Half an hour after drug administration the animals were presented with a pre-weighed amount of food in the food cup. Food that remained in the cup was measured at various time points. The effect of standard, and test compounds on food intake in fasted lean C57Bl6/J mice at 2, 4, 6 and 24 hrs post-food introductions was evaluated. […] (*** p<0.001 vs vehicle treated controls) (b) Chronic Study

[2] = system: genetically diabetic db/db BL/6J mice; test: Screening in db/db BL/6J mice: reduction of plasma glucose; format: in vivo; conditions: 10 days
Protocol: The protocol was designed as in references. • 1.
The screening of compounds was based on their ability to reduce the plasma glucose levels in genetically diabetic db/db BL/6J mice.
Male db/db mice (obtained from the Animal House of Nicholas Piramal Research Centre, Goregaon, Mumbai, India) were used for this study (body weight in the range of 30-40 g and age is 6-8 weeks) and were kept eight per cage in individually ventilated cages at controlled temperature (22±1° C.) and humidity (45±5%). Food and water were provided ad libitum during their laboratory stay, except for four hours fasting prior to blood sample collection. 12 hours light and dark cycle was followed during the whole study period.
After 4 hours fasting blood samples were collected from mice. Mice showing plasma glucose levels between 300 to 500 mg/dl were divided in groups (8-10 per group) such that the mean plasma glucose levels and variation within the group, for each group, is nearly the same. After grouping, mice in respective groups received treatment with 0.5% CMC vehicle, standard compound or test compounds for 10 days.
After 4 hours fasting, mice were anaesthetized using isoflurane (inhalation anesthetic), and blood samples were collected through the retro orbital plexus. Collected blood samples were centrifuged at 7000 rpm for 10 minutes at 4° C.; Separated plasma was used for estimation of plasma glucose using diagnostic kits (Diasys, Germany). Plasma glucose levels of treated groups were normalized with control group using the following formula, which accounted for the changes in control group.
Formula used for normalization was *: {1−(Ratio of mean plasma glucose levels of control group on day 10 to day 0)/(Ratio of plasma glucose levels of treated group on day 10 to day 0)}×100.

SMILES | % of Rosiglitazone (comparison with Rosiglitazone, glucose uptake) [1] [%] | Fold Vehicle (fold activity over vehicle, glucose uptake) [1] | Inhibition of food intake (lean C57Bl6/J mice) | Normalization with control (plasma glucose reduction) ([2]; 100 mpk bid) | Normalization with control (plasma glucose reduction) ([2]; Rosiglitazone 5 mpk bid)
COc1ccc(OC)c(S(=O)(=O)Nc2cnc(Oc3ccc(N4CCN(C(C)=O)CC4)cc3)c(Cl)c2)c1 [Compound 4, N-(6-(4-(4-Acetylpiperazin-1-yl)phenoxy)-5-chloropyridin-3-yl)-2,5-dimethoxy-benzenesulfonamide] | 41.33 | 1.55 ± 0.03 |  |  | 
CC(=O)N1CCN(c2ccc(Oc3ncc(NS(=O)(=O)c4ccc(C(F)(F)F)cc4Cl)cc3Cl)cc2)CC1 [Compound 5, N-(6-(4-(4-Acetylpiperazin-1-yl)phenoxy)-5-chloropyridin-3-yl)-2-chloro-4-(trifluoromethyl)benzenesulfonamide] | 63.94 | 1.85 ± 0.04 |  |  | 
CC(=O)N1CCN(c2ccc(Oc3ncc(NS(=O)(=O)c4ccc(Cl)c(Cl)c4)cc3Cl)cc2)CC1 [Compound 6, N-(6-(4-(4-Acetylpiperazin-1-yl)phenoxy)-5-chloropyridin-3-yl)-3,4-dichlorobenzene-sulfonamide] | 69.76 | 1.93 ± 0.06 |  |  | 
O=S(=O)(Nc1cnc(Oc2ccc(N3CCNCC3)cc2)c(Cl)c1)c1ccc(Cl)cc1Cl [Compound 11, 2,4-Dichloro-N-(5-chloro-6-(4-(piperazin-1-yl)phenoxy)pyridin-3-yl)benzene sulfonamide] |  |  | effective in inhibiting food intake |  | 
CC(=O)N1CCN(c2ccc(Oc3ncc(NC(=O)CCC(=O)O)cc3Cl)cc2)CC1 [Compound 14, 4-(6-(4-(4-Acetylpiperazin-1-yl)phenoxy)-5-chloropyridin-3-ylamino)-4-oxobutanoic acid] | 27.5 | 1.49 ± 0.05 |  | Inactive | 
O=S(=O)(Nc1cnc(Oc2ccccc2-c2nc3ccccc3s2)c(Cl)c1)c1ccc(Cl)cc1Cl [Compound 15, N-(6-(2-(Benzo[d]thiazol-2-yl)phenoxy)-5-chloropyridin-3-yl)-2,4-dichlorobenzene-sulfonamide] | 36.7 | 2.0 ± 0.13 |  |  | 
CN(CCOc1ccc(CC2SC(=O)NC2=O)cc1)c1ccccn1 (stereo not shown) [Rosiglitazone, reference compound] |  |  |  |  | 55.73 ± 4.46 and 53.34 ± 4.11
